Assay results reported in ChEMBL document CHEMBL2375302, “Synthesis, antimicrobial, antiquorum-sensing, antitumor and cytotoxic activities of new series of fused [1,3,4]thiadiazoles” (Eur J Med Chem, 2013).
In brackets after ≈: the same amount, converted by molar mass.

Assays:
[1] = Toxicity against brine shrimp larvae assessed as mortality at 1000 ug/mL after 24 hrs by binocular microscopic analysis relative to control; assay type: organism-based; settings: artemia salina, in vivo
[2] = Toxicity against brine shrimp larvae assessed as mortality at 500 ug/mL after 24 hrs by binocular microscopic analysis relative to control; assay type: organism-based; settings: artemia salina, in vivo
MDA-MB-435 = experiment: Growth inhibition of human MDA-MB-435 cells at 10 uM after 48 hrs by coulter counter analysis relative to control; assay type: functional; settings: MDA-MB-435, 48 h, read-out: GI
RXF 393 = experiment: Growth inhibition of human RXF393 cells at 10 uM after 48 hrs by coulter counter analysis relative to control; assay type: functional; settings: RXF 393, 48 h, read-out: GI
Aspergillus flavus = experiment: Antifungal activity against Aspergillus flavus 3372 at 5 mg/mL after 48 hrs; assay type: functional; settings: Aspergillus flavus, 3372, 48 h; read-out: DIZ
CCRF-CEM = experiment: Growth inhibition of human CCRF-CEM cells at 10 uM after 48 hrs by coulter counter analysis relative to control; assay type: functional; settings: read-out: GI
OVCAR-5 = experiment: Growth inhibition of human OVCAR5 cells at 10 uM after 48 hrs by coulter counter analysis relative to control; assay type: functional; settings: OVCAR-5, 48 h, read-out: GI
M14 = experiment: Growth inhibition of human M14 cells at 10 uM after 48 hrs by coulter counter analysis relative to control; assay type: functional; settings: M14, 48 h, read-out: GI
SK-MEL-5 = experiment: Growth inhibition of human SK-MEL-5 cells at 10 uM after 48 hrs by coulter counter analysis relative to control; assay type: functional; settings: SK-MEL-5, 48 h, read-out: GI
PC-3 = experiment: Growth inhibition of human PC3 cells at 10 uM after 48 hrs by coulter counter analysis relative to control; assay type: functional; settings: PC-3, 48 h, read-out: GI
MCF7 = experiment: Growth inhibition of human MCF7 cells at 10 uM after 48 hrs by coulter counter analysis relative to control; assay type: functional; settings: MCF7, 48 h, read-out: GI
SR = experiment: Growth inhibition of human SR cells at 10 uM after 48 hrs by coulter counter analysis relative to control; assay type: functional; settings: read-out: GI
BT-549 = experiment: Growth inhibition of human BT549 cells at 10 uM after 48 hrs by coulter counter analysis relative to control; assay type: functional; settings: BT-549, 48 h, read-out: GI
SF-539 = experiment: Growth inhibition of human SF539 cells at 10 uM after 48 hrs by coulter counter analysis relative to control; assay type: functional; settings: SF-539, 48 h, read-out: GI
Hs-578T = experiment: Growth inhibition of human Hs578T cells at 10 uM after 48 hrs by coulter counter analysis relative to control; assay type: functional; settings: read-out: GI
MDA-MB-468 = experiment: Growth inhibition of human MDA-MB-468 cells at 10 uM after 48 hrs by coulter counter analysis relative to control; assay type: functional; settings: MDA-MB-468, 48 h, read-out: GI
T47D = experiment: Growth inhibition of human T47D cells at 10 uM after 48 hrs by coulter counter analysis relative to control; assay type: functional; settings: read-out: GI
NCI-H522 = experiment: Growth inhibition of human NCI-H522 cells at 10 uM after 48 hrs by coulter counter analysis relative to control; assay type: functional; settings: NCI-H522, 48 h, read-out: GI
A549 = experiment: Growth inhibition of human A549 cells at 10 uM after 48 hrs by coulter counter analysis relative to control; assay type: functional; settings: A549, 48 h, read-out: GI
Staphylococcus aureus = experiment: Antibacterial activity against Staphylococcus aureus at 5 mg/mL after 24 hrs; assay type: functional; settings: read-out: DIZ
OVCAR-3 = experiment: Growth inhibition of human OVCAR3 cells at 10 uM after 48 hrs by coulter counter analysis relative to control; assay type: functional; settings: OVCAR-3, 48 h, read-out: GI
SK-MEL-2 = experiment: Growth inhibition of human SK-MEL-2 cells at 10 uM after 48 hrs by coulter counter analysis relative to control; assay type: functional; settings: SK-MEL-2, 48 h, read-out: GI
[3] = Growth inhibition of human HCC2998 cells at 10 uM after 48 hrs by coulter counter analysis relative to control; assay type: functional; settings: HCC 2998, 48 h, read-out: GI
OVCAR-8 = experiment: Growth inhibition of human OVCAR8 cells at 10 uM after 48 hrs by coulter counter analysis relative to control; assay type: functional; settings: OVCAR-8, 48 h, read-out: GI
[4] = (§1) Toxicity against brine shrimp larvae assessed as mortality after 24 hrs by binocular microscopic analysis; assay type: organism-based; settings: artemia salina, in vivo
Artemia salina = experiment: as §1; assay type: organism-based; settings: in vivo, 24 h
UACC-257 = experiment: Growth inhibition of human UACC257 cells at 10 uM after 48 hrs by coulter counter analysis relative to control; assay type: functional; settings: UACC-257, 48 h, read-out: GI
UACC-62 = experiment: Growth inhibition of human UACC62 cells at 10 uM after 48 hrs by coulter counter analysis relative to control; assay type: functional; settings: UACC-62, 48 h, read-out: GI
786-0 = experiment: Growth inhibition of human 786-0 cells at 10 uM after 48 hrs by coulter counter analysis relative to control; assay type: functional; settings: 786-0, 48 h, read-out: GI
Malme-3M = experiment: Growth inhibition of human MALME-3M cells at 10 uM after 48 hrs by coulter counter analysis relative to control; assay type: functional; settings: read-out: GI
LOX IMVI = experiment: Growth inhibition of human LOXIMVI cells at 10 uM after 48 hrs by coulter counter analysis relative to control; assay type: functional; settings: read-out: GI
[5] = Growth inhibition of human EKVX cells at 10 uM after 48 hrs by coulter counter analysis relative to control; assay type: functional; settings: read-out: GI

Structure (SMILES) | mortality at 24 h, 1000 ug/mL [1] [%] | mortality at 24 h, 500 ug/mL [2] [%] | inhibition of growth at 10 µM (MDA-MB-435) [%] | inhibition of growth at 10 µM (RXF 393) [%] | zone of inhibition at 5000 µg/mL (Aspergillus flavus) [mm] | inhibition of growth at 10 µM (CCRF-CEM) [%] | inhibition of growth at 10 µM (OVCAR-5) [%] | inhibition of growth at 10 µM (M14) [%] | inhibition of growth at 10 µM (SK-MEL-5) [%] | inhibition of growth at 10 µM (PC-3) [%] | inhibition of growth at 10 µM (MCF7) [%] | inhibition of growth at 10 µM (SR) [%] | inhibition of growth at 10 µM (BT-549) [%] | inhibition of growth at 10 µM (SF-539) [%] | inhibition of growth at 10 µM (Hs-578T) [%] | inhibition of growth at 10 µM (MDA-MB-468) [%] | inhibition of growth at 10 µM (T47D) [%] | inhibition of growth at 10 µM (NCI-H522) [%] | inhibition of growth at 10 µM (A549) [%] | zone of inhibition at 5000 µg/mL (Staphylococcus aureus) [mm] | also measured
CCOC(=O)C1C(=O)N=C2SC(S(N)(=O)=O)=NN2C1c1ccc(N(C)C)cc1 (stereo unspecified) | 100 | 93.3 | 21.3 | < 10 | < 2 | < 10 | < 10 | < 10 | < 10 | 11.4 | 10.2 | 10.3 | < 10 | < 10 | 18.5 | < 10 | < 10 | 19.3 | < 10 | 5 | inhibition of growth at 10 µM (OVCAR-3): < 10%; inhibition of growth at 10 µM (SK-MEL-2): < 10%; inhibition of growth at 10 µM [3]: < 10%; inhibition of growth at 10 µM (OVCAR-8): < 10%; LC50 at 24 h [4]: 405 µg/mL (≈ 951 µM); LC90 (Artemia salina): 728.74 µg/mL (≈ 1710 µM); inhibition of growth at 10 µM (UACC-257): < 10%; inhibition of growth at 10 µM (UACC-62): 13.7%; inhibition of growth at 10 µM (786-0): < 10%; inhibition of growth at 10 µM (Malme-3M): 14.9%; inhibition of growth at 10 µM (LOX IMVI): 11.7%; inhibition of growth at 10 µM [5]: 12.2%
N#Cc1cnc2sc(S(N)(=O)=O)nn2c1=O | 96.6 | 83.3 | < 10 | < 10 | < 2 | < 10 | < 10 | < 10 | < 10 | < 10 | < 10 | < 10 | < 10 | < 10 | 12.8 | < 10 | < 10 | < 10 | < 10 | 18 | inhibition of growth at 10 µM (OVCAR-3): < 10%; inhibition of growth at 10 µM (SK-MEL-2): < 10%; inhibition of growth at 10 µM [3]: < 10%; inhibition of growth at 10 µM (OVCAR-8): < 10%; LC50 at 24 h [4]: 432 µg/mL (≈ 1680 µM); LC90 (Artemia salina): 777.87 µg/mL (≈ 3020 µM); inhibition of growth at 10 µM (UACC-257): < 10%; inhibition of growth at 10 µM (UACC-62): < 10%; inhibition of growth at 10 µM (786-0): < 10%; inhibition of growth at 10 µM (Malme-3M): 28%; inhibition of growth at 10 µM (LOX IMVI): 10.7%; inhibition of growth at 10 µM [5]: < 10%
N#Cc1cnc2sc(S(N)(=O)=O)nn2c1=N | 96.6 | 90 | < 10 | < 10 | < 2 | < 10 | < 10 | < 10 | < 10 | < 10 | < 10 | < 10 | < 10 | < 10 | < 10 | < 10 | < 10 | < 10 | < 10 | < 2 | inhibition of growth at 10 µM (OVCAR-3): < 10%; inhibition of growth at 10 µM (SK-MEL-2): < 10%; inhibition of growth at 10 µM [3]: < 10%; inhibition of growth at 10 µM (OVCAR-8): < 10%; LC50 at 24 h [4]: 419 µg/mL (≈ 1640 µM); LC90 (Artemia salina): 754.4 µg/mL (≈ 2940 µM); inhibition of growth at 10 µM (UACC-257): < 10%; inhibition of growth at 10 µM (UACC-62): < 10%; inhibition of growth at 10 µM (786-0): < 10%; inhibition of growth at 10 µM (Malme-3M): < 10%; inhibition of growth at 10 µM (LOX IMVI): 15.1%; inhibition of growth at 10 µM [5]: < 10%
